Literature values as cited in patent publication EP2387991A1, “Vitamin E succinate stabilized pharmaceutical compositions, methods for the preparation and the use thereof” (Adventrx Pharmaceuticals, Inc., priority 2006, dated 2007).

In the case of `CC(=O)O[C@@]12CO[C@@H]1C[C@H](O)[C@@]1(C)C(=O)[C@H](O)C3=C(C)[C@@H](OC(=O)[C@H](O)[C@@H](NC(=O)OC(C)(C)C)c4ccccc4)C[C@@](O)([C@@H](OC(=O)c4ccccc4)[C@H]21)C3(C)C` [Docetaxel, (2R,3S)-N-carboxy-3-phenylisoserine, N-tert-butyl ester, 13-ester with 5β-20-epoxy-1,2α-,4,7β,10β,13α-hexahydroxytax-11-en-9-one 4-acetate 2-benzoate, trihydrate], the solubility in water is listed as “practically insoluble”.
